The text below walks through data of patent US6121252A, “Phosphinic acid derivatives” (priority 1998, dated 2000).

Peptide text beside a SMILES is read from it.

In one test the target is T1, NAALADase (Rattus norvegicus, UniProt P70627).
T1 construct: synaptosomal protein; from tissue; host or cells: synaptosomes (brain tissue)
As to the kind of experiment: In vitro inhibition of NAALADase activity. It counts as biochemical. The source says:
"Inhibition", in the context of enzymes, refers to reversible enzyme inhibition such as competitive, uncompetitive and non-competitive inhibition. Competitive, uncompetitive and non-competitive inhibition can be distinguished by the effects of an inhibitor on the reaction kinetics of an enzyme. […] The affinity between the inhibitor and the enzyme may be measured by the inhibitor constant, Ki, which is defined as: [formula] wherein [E] is the concentration of the enzyme, [I] is the concentration of the inhibitor, and [EI] is the concentration of the enzyme-inhibitor complex formed by the reaction of the enzyme with the inhibitor. Unless otherwise specified, Ki as used herein refers to the affinity between the inventive compounds and NAALADase.
Various compounds of formula I were tested for in vitro inhibition of NAALADase activity.
Substrate and product were resolved by anion-exchange liquid chromatography. […] Quisqualate (100 μM) was included in parallel assay tubes to confirm the specificity of the measurements.

A further test has as its system LNCaP tumors. As to the kind of experiment: In vivo LNCaP tumor model, subcutaneous Compounds 16, 17, 18. More on the design: species or system ncr nude male mice. The note with it: for tumor response (in words): 1 and 3 mg/kg s.c. On the procedure: Ncr nude male mice, age 5 to 6 weeks, were injected in the right flank with 5×10^6 LNCaP cells in Matrigel™ (0.1 ml total injection volume). Two weeks following cell injection, daily s.c. injections of Compound 16, Compound 17, and Compound 18 were initiated at the following doses: 1 and 3 mg/kg. Controls received 50 mM HEPES s.c. daily. Once tumors were palpable they were measured twice a week.
Response to treatment was monitored in two ways. First, mean tumor volume for each group was presented as tumor:control ratio (% T/C) and these values were compared at one point in time. Second, tumor volume versus time was monitored.

In test [1] the test system is spinal cord organotypic cultures. As to the kind of experiment: ALS model: ChAT activity of spinal cord organotypic cultures with THA. Type of test: cell-based, rat. The note with it: Rattus norvegicus, THA alone, 100 μM. How it is done: Organotypic cultures were prepared from lumbar spinal cord of 8 day old rats, as described by Rothstein et al., J. Neurochem., Vol. 65, No. 2 (1995), and Rothstein et al., Proc. Natl. Acad. Sci. USA, Vol. 90, pp. 6591-6595 (July 1993). In brief, lumbar spinal cords were removed and sliced into […]-thick-dorsal-ventral sections, and five slices were placed on Millipore CM semipermeable 30-mm-diameter membrane inserts. The inserts were placed on 1 ml of culture medium in 35-mm-diameter culture wells. Culture medium consisted of 50% minimal essential medium and phosphate-free HEPES (25 mM), 25% heat-inactivated horse serum, and 25 Hanks' balanced salt solution (GIBCO) supplemented with D-glucose (25.6 mg/ml) and glutamine (2 mM), at a final pH of 7.2. Antibiotic and antifungal agents were not used. Cultures were incubated at 37° C. in 5% CO2 containing humidified environment (Forma Scientific). Culture medium, along with any added pharmacological agents, was changed twice weekly.
Drugs were incubated for an additional 13 to 20 days with the 100 μM THA. At the end of this period, cultures were collected assayed for ChAT activity as described below.
To determine choline acetyltransferase (CHAT) activity, the spinal cord tissues in each dish (five slices) were pooled and frozen (-75° C.) until assay. CHAT activity was measured radiometrically by described methods using [^3 H]acetyl-CoA (Amersham; Fonnum, 1975). Protein content of tissue homogenate was determined by a Coomassi Protein Assay kit (Pierce, Rockford, Ill.).

In test [2] the test system is cortical cell cultures. As to the kind of experiment: In vitro ischemia assay (KCN/2-DG) in cortical cell cultures. The note with it: Rattus norvegicus, 1 h, read-out: EC50 (50% reduction in glutamate toxicity following an ischemic insult); KCN/2-DG insult, compound during insult and one hour thereafter. It counts as cell-based, rat.
The subject of test [3] is cortical cell cultures. Description: In vitro toxicity of NAAG in cortical cell cultures. Type of test: cell-based. The note with it: Rattus norvegicus, 20 min. How it is done:
Experiments are performed after 21 days in cultures.
At the end of exposure, the cells are washed once with HEPES buffered saline solution and then replaced with serum free modified Earle's basal medium. The cultures are then returned to the CO2 incubator for 24 hour recovery.
This control measurement is subtracted from each experimental point.

For another test, the system named is dopaminergic neurons. As to the kind of experiment: Parkinson's Disease model: MPTP lesioned mice. Type of test: in vivo, CD1 mice. On the procedure:
To examine the effect of NAALADase inhibitors on Parkinson's Disease in vivo, MPTP lesioned mice were treated with 2-(phosphonomethyl)pentanedioicacid or a vehicle.
MPTP lesioning of dopaminergic neurons in mice was used as an animal model of Parkinson's Disease, as described by Steiner, Proc. Natl. Acad. Sci., Vol. 94, pp. 2019-2024 (March 1997). In brief, four week old male CD1 white mice were dosed IP with 30 mg/kg of MPTP for 5 days. […] At 18 days following MPTP treatment, the mice were sacrificed and their brains were removed and sectioned. Immunostaining was performed on saggital and coronal brain sections using anti-tyrosine hydroxylase (TH) antibodies to quantitate survival and recovery of dopaminergic neurons.

T1 sequence (P70627 whole entry): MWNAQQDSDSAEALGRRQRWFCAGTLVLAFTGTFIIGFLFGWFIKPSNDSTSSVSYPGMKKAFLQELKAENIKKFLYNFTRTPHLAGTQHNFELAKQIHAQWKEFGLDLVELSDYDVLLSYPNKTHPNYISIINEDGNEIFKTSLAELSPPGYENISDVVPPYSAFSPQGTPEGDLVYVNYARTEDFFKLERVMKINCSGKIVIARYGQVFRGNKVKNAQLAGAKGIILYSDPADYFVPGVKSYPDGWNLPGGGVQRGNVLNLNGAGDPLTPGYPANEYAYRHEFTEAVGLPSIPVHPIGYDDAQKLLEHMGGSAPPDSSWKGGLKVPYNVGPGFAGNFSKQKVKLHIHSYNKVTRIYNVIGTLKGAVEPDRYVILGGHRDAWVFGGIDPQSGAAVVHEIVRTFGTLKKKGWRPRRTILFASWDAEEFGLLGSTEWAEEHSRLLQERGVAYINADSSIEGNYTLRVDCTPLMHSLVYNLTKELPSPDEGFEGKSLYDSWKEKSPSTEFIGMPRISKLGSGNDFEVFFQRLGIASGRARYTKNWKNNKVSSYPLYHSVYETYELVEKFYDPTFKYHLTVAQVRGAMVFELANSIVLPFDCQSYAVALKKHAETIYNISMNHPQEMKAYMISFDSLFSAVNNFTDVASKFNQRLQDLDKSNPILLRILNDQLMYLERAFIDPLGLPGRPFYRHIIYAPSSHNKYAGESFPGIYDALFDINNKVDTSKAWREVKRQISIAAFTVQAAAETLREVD

Regarding `O=C(O)CCC(CP(=O)(O)C(NC(=O)O)c1ccccc1)C(=O)O` (stereo not shown), at NAALADase, affinity was put at a Ki of 2000 nM.
At NAALADase, `CC(C)(C)c1ccc(NCP(=O)(O)CC(CCC(=O)O)C(=O)O)cc1` (stereo not shown) [drawing 32] gave a Ki of 2 nM.
On to “2-[[[hydroxy(pyridyl)methyl]hydroxyphosphinyl]methyl]pentanedioic acid [Compound 18]”, for which the “tumor size, % of control tumors” value with LNCaP tumors (1 mg/kg s.c.) is 54 % of controls; with LNCaP tumors (3 mg/kg s.c.), 58 % of controls. Besides, the “tumor response (in words)” value with LNCaP tumors was “responded better”.
Take `N[C@H](C(=O)O)[C@H](O)C(=O)O` (relative stereo) [THA, threohydroxyaspartate]: the activity at 100 µM in test [1] came out at 36 ± 12.1%.
Compound `O=C(O)CCC(CP(=O)(O)CNc1ccc(F)cc1)C(=O)O` (stereo not shown) [drawing 29] yielded a Ki on NAALADase of 9 nM.
`O=C(O)CCC(CP(=O)(O)Cc1cccc(C(F)(F)F)c1)C(=O)O` (stereo not shown) [Compound 17, 2-[[(3-trifluoromethylbenzyl)hydroxyphosphinyl]methyl]pentanedioic acid]: the “tumor size, % of control tumors” value in the test on LNCaP tumors (1 mg/kg s.c.) is recorded as 74.1 % of controls; in the test with LNCaP tumors (3 mg/kg s.c.), 82 % of controls. For the same compound, the “tumor response (in words)” value in the test on LNCaP tumors is listed as “responded minimally”.
Consider `O=C(O)CCC(CP(=O)(O)CNCc1ccccc1)C(=O)O` (stereo not shown), for which, in the test with cortical cell cultures [2], the EC50 is 0.9 nM.
On the same count and under the same terms, for `COc1ccc(NCP(=O)(O)CC(CCC(=O)O)C(=O)O)cc1` (stereo not shown) [drawing 40] the value was 9.5 nM.
`O=C(O)CCC(CP(=O)(O)CNS(=O)(=O)c1ccccc1)C(=O)O` (stereo not shown) gave a Ki on NAALADase of 90 nM.
Consider `Cc1ccc(NCP(=O)(O)CC(CCC(=O)O)C(=O)O)cc1` (stereo not shown) [drawing 41], for which, in the test with cortical cell cultures [2], the EC50 was found to be 11.4 nM.
`Cc1ccc(NCP(=O)(O)CC(CCC(=O)O)C(=O)O)cc1` (stereo not shown) [drawing 31] gave a Ki at NAALADase of 5.2 nM.
In turn, `O=C(O)CCC(CP(=O)(O)CN1C(=O)c2ccccc2C1=O)C(=O)O` (stereo not shown) returned a Ki on NAALADase of 34.5 nM.
For the compound `CC(=O)N[C@@H](CC(=O)O)C(=O)N[C@@H](CCC(=O)O)C(=O)O` [NAAG, N-acetyl-aspartyl-glutamate] (Ac-Asp-Glu-OH), in the test with cortical cell cultures [3], the cytotoxicity at 3 µM is 3.51%, the cytotoxicity at 10 µM stood at 4.3 ± 3.12%, the cytotoxicity at 30 µM came out at 11.4 ± 6.17% and the cytotoxicity at 100 µM is 12.7 ± 5.5%. In the test with cortical cell cultures [3], this compound yielded a cytotoxicity at 300 µM of 13.5 ± 4%, a cytotoxicity at 1000 µM of 21.5 ± 4.2% and a cytotoxicity at 3000 µM of 45.1 ± 4.96%.
On NAALADase, `COc1ccc(NCP(=O)(O)CC(CCC(=O)O)C(=O)O)cc1` (stereo not shown) [drawing 30] displayed a Ki of 2.5 nM.
In the case of `CC(C)(C)c1ccc(NCP(=O)(O)CC(CCC(=O)O)C(=O)O)cc1` (stereo not shown) [drawing 42], the EC50 in the test on cortical cell cultures [2] came to 34.6 nM.
As for `O=C(O)CCC(CP(=O)(O)Cc1c(F)c(F)c(F)c(F)c1F)C(=O)O` (stereo not shown) [Compound 16, 2-[[(pentafluorobenzyl)hydroxyphosphinyl]methyl]pentanedioic acid], the “tumor size, % of control tumors” value in the test with LNCaP tumors (1 mg/kg s.c.) is 78 % of controls; with LNCaP tumors (3 mg/kg s.c.) it was 41.4 % of controls.
In the case of `CN1CC=C(c2ccccc2)CC1` [MPTP], the “loss of functional dopaminergic terminals” value with dopaminergic neurons (MPTP and vehicle vs non-lesioned mice) is recorded as “approximately 68%”. For the same compound, the “Percent Striatal TH Innervation Density” value in the test with dopaminergic neurons (MPTP/vehicle, mean ± SEM) was found to be 7.82 ± 0.68%.
Turning to `O=C(O)CCC(CP(=O)(O)CNc1ccc(F)cc1)C(=O)O` (stereo not shown) [drawing 39], the half-maximal effective concentration (EC50) in the test with cortical cell cultures [2] came to 3.1 nM.
Consider `O=C(O)CCC(CP(=O)(O)C(NCc1ccccc1)c1ccccc1)C(=O)O` (stereo not shown), for which the EC50 in the test on cortical cell cultures [2] came out at 1 nM.
